Earlier results on 1 compound are cited in patent US20050272717A1, “Treatment of aromatase inhibitor therapy-related osteoporosis” (priority 2004, published 2005).

The subject of one series is bone. To be noted: preclinical studies.

`Cc1c(-c2ccc(O)cc2)n(Cc2ccc(OCCN3CCCCCC3)cc2)c2ccc(O)cc12` [bazedoxifene, 1-[4-(2-azepan-1-yl-ethoxy)-benzyl]-2-(4-hydroxy-phenyl)-3-methyl-1H-indol-5-ol]: in the series on breast cancer cells, the “estradiol-stimulated proliferation of breast cancer cells” value is recorded as “inhibits”. Further, the compressive bone strength entry with bone was “improved”. The histomorphometric profile entry in the series with bone (compared with raloxifene) is given as “superior to that of raloxifene”.
